Test system: guinea pigs, pilocarpine-evoked salivation
Experiment: Inhalation guinea pig salivation assay (Assay Test Procedure H)
Format: in vivo
Details: ratio of anti-sialagogue ID50 to bronchoprotective ID50, guinea pig
Description: Guinea pigs (Charles River, Wilmington, Mass.) weighing 200-350 g are acclimated to the in-house guinea pig colony for at least 3 days following arrival. Test compound or vehicle are dosed via inhalation (IH) over a 10 minute time period in a pie shaped dosing chamber (R+S Molds, San Carlos, Calif.). Test solutions are dissolved in sterile water and delivered using a nebulizer filled with 5.0 mL of dosing solution. Guinea pigs are restrained in the inhalation chamber for 30 minutes. During this time, guinea pigs are restricted to an area of approximately 110 sq. cm. This space is adequate for the animals to turn freely, reposition themselves, and allow for grooming. […] Upon completion of nebulization, guinea pigs are evaluated at 1.5, 6, 12, 24, 48, or 72 hrs after treatment.
Guinea pigs are anesthetized one hour before testing with an intramuscular (IM) injection of a mixture of ketamine 43.75 mg/kg, xylazine 3.5 mg/kg, and acepromazine 1.05 mg/kg at an 0.88 mL/kg volume. […] Saliva is collected for 10 minutes, at which point the gauze pad is weighed and the difference in weight recorded to determine the amount of accumulated saliva (in mg). The mean amount of saliva collected for animals receiving the vehicle and each dose of test compound is calculated. […] Results are calculated using result means (n=3 or greater). […]

SMILES: NC(=O)C(c1ccccc1)(c1ccccc1)[C@@H]1CCN(CCC(=O)NCCCCCNC[C@H](O)c2ccc(O)c3[nH]c(=O)ccc23)C1 [Example 3, 3-[(S)-3-(Carbamoyldiphenylmethyl)pyrrolidin-1-yl]-N-{5-[(R)-2-hydroxy-2-(8-hydroxy-2-oxo-1,2-dihydroquinolin-5-yl)ethylamino]pentyl}propionamide]
- apparent lung-selectivity index: greater than 5
